The values that follow come from article PMC9635472, “Design, synthesis, and biological evaluation of novel ciprofloxacin derivatives as potential anticancer agents targeting topoisomerase II enzyme” (Journal of Enzyme Inhibition and Medicinal Chemistry, 2022).

Data set [1] relates to human prostate carcinoma (PC-3) cell line. The experiment in a line: MTT cell viability assay, PC-3 cells. It counts as cell-based. The following applies: prostate cancer cell line PC-3, treatment for 24 h (table title), means of three experiments, read-out: IC50 (μM* ± SD) PC-3. On the procedure: (§1) Human bladder cancer (T-24) and human prostate carcinoma (PC-3) cell lines were obtained from American Type Culture Collection (ATCC; Manassas, VA USA). Cells were maintained in Dulbecco’s modified Eagle medium with 10% foetal bovine serum at 37 °C and 5% CO2. All the operations were carried out under strict aseptic conditions. The culture medium was removed to a centrifuge tube containing 9.0 ml complete culture medium and spanned at approximately 125 × g for 5 to 7 min. The cell layer was rinsed with 0.25% (w/v) trypsin- […] EDTA solution by which all traces of serum-containing inhibitor were removed. Trypsin EDTA solution 2.0 to 3.0 ml was added to a flask and cells were monitored under an inverted microscope until the cell layer was dispersed (usually within 5–15 min). A complete growth medium was added (6.0–8.0 ml), and cells were aspirated by gentle pipetting. The cell pellet was suspended with the recommended complete medium and dispensed into a 75 cm^2 culture flask. The culture vessel containing the complete growth medium was placed in the incubator for 24 h to at 37 °C. The cells were treated with different concentrations (0.39, 1.60, 6.25, 25, and 100 μg/ml) of each of the test compounds or doxorubicin, […], then the plates were examined under the inverted microscope and finally the MTT assay was carried out.
(§2) Anti-cancer activity of the newly synthesised compounds was evaluated in vitro against both T-24 and PC-3 cell lines according to the MTT method. Cells were seeded into 96-well plates (flat bottom) at a density of 10 000 cells/well for 24 h. The vial of MTT to be used was reconstituted with 3 ml of medium or balanced salt solution without phenol red and serum. then, a reconstituted MTT vial was added in an amount equal to 10% of the culture medium volume. Cultures were incubated for 2–4 h depending on the cell type and maximum cell density and removed from the incubator and the formazan crystals were dissolved via the addition of an amount of MTT solubilisation solution (M-8910) equal to the original culture medium volume. ROBONIK P2000 spectrophotometer at a wavelength of 570 nm was used to measure the colour intensity spectrophotometrically. The survival curve of both T-24 and PC-3 cells was obtained by plotting the percentage of surviving cells against the drug after each compound. The IC50 value for each test compound and the reference drug doxorubicin was calculated.
(§3) In this study, all the newly synthesised CP derivatives were subjected to anticancer activity evaluation against bladder (T-24) and prostate cancer (PC-3) cell lines. The compounds were evaluated for their activity using 5 doses determinations (100 μg/ml, 25 μg/ml, 6.25 μg/ml, 1.60 μg/ml, and 0.39 μg/ml). Their half-maximal inhibitory concentration (IC50) values were measured. Doxorubicin was chosen as a reference anticancer drug[65].

In data set [2] the test system is Human bladder cancer (T-24) cell line. The experiment in a line: MTT cell viability assay, T-24 cells. It counts as cell-based. Conditions: bladder cancer cell line T-24, treatment for 24 h (table title), means of three experiments, read-out: IC50 (μM* ± SD) T-24. The method, then: as §1, §2, §3
In general terms: Tetrazolium dyes change colour on reduction, which living cells bring about.

For orientation: melting point means the temperature of the solid-liquid transition. As usually defined, the IC50 is the concentration needed to halve the response being measured. Compound `CC1=NN(C(=O)CN2CCN(c3cc4c(cc3F)c(=O)c(C(=O)O)cn4C3CC3)CC2)C(=O)C1` [Compound 3, 1-cyclopropyl-6-fluoro-7-(4-(2-(3-methyl-5-oxo-4,5-dihydro-1H-pyrazol-1-yl)-2-oxoethyl)piperazin-1-yl)-4-oxo-1,4-dihydroquinoline-3-carboxylic acid] came in with a melting point of 188 to 190 °C. In addition, in data set [1], the IC50 amounted to 98.2 ± 5 µM. Further, the half-inhibitory concentration (IC50) in data set [2] turned out to be 37.3 ± 2.02 µM.
With `N=C1CC(=O)NN1C(=O)CN1CCN(c2cc3c(cc2F)c(=O)c(C(=O)O)cn3C2CC2)CC1` [Compound 4, 1-cyclopropyl-6-fluoro-7-(4-(2-(5-imino-3-oxopyrazolidin-1-yl)-2-oxoethyl)piperazin-1-yl)-4-oxo-1,4-dihydroquinoline-3-carboxylic acid], the melting point was in the range of 181 to 183 °C. Moreover, the IC50 in data set [1] came to 29.9 ± 1.53 µM. Moreover, the concentration for half-maximal inhibition (IC50) in data set [2] was 25.5 ± 1.38 µM.
In the case of `Cc1cc(C)n(C(=O)CN2CCN(c3cc4c(cc3F)c(=O)c(C(=O)O)cn4C3CC3)CC2)n1` [Compound 5, 1-cyclopropyl-7-(4-(2-(3,5-dimethyl-1H-pyrazol-1-yl)-2-oxoethyl)piperazin-1-yl)-6-fluoro-4-oxo-1,4-dihydro-quinoline-3-carboxylic acid], the IC50 in data set [1] was found to be 24.9 ± 1.26 µM; in data set [2], 25.9 ± 1.39 µM.
`CC(=NNC(=O)CN1CCN(c2cc3c(cc2F)c(=O)c(C(=O)O)cn3C2CC2)CC1)c1ccc(N)cc1` [Compound 7c, 7-(4-(2-(2-(1-(4-Aminophenyl)ethylidene)hydrazinyl)-2-oxoethyl)-piperazin-1-yl)-1-cyclopropyl-6-fluoro-4-oxo-1,4-dihydroquinoline-3-carboxylic acid] came in with a melting point of 173 to 175 °C. The IC50 in data set [1] worked out at 32.8 ± 0.86 µM. Also, the half-maximal inhibitory concentration (IC50) in data set [2] amounted to 25.6 ± 0.71 µM.
Taken in the same sequence, the figures for `CC(=NNC(=O)CN1CCN(c2cc3c(cc2F)c(=O)c(C(=O)O)cn3C2CC2)CC1)c1ccccc1O` [Compound 7d, 1-Cyclopropyl-6-fluoro-7-(4-(2-(2-(1-(2-hydroxyphenyl)ethylidene)hydrazinyl)-2-oxoethyl)piperazin-1-yl)-4-oxo-1,4-dihydroquinoline-3-carboxylic acid] were 166 to 168 °C, 8.81 ± 0.44 µM and 88 ± 4.75 µM.
`CC(=NNC(=O)CN1CCN(c2cc3c(cc2F)c(=O)c(C(=O)O)cn3C2CC2)CC1)c1cccs1` [Compound 7e, 1-Cyclopropyl-6-fluoro-4-oxo-7-(4-(2-oxo-2-(2-(1-(thiophen-2-yl)ethylidene)hydrazinyl)ethyl)piperazin-1-yl)-1,4-dihydroquinoline-3-carboxylic acid] had a melting point of 245 to 247 °C. For the same compound, the IC50 in data set [1] was found to be 50.5 ± 10.4 µM. Also, in data set [2], the IC50 turned out to be 25 ± 0.2 µM.
Taken in the same sequence, the figures for `CC(=NNC(=O)CN1CCN(c2cc3c(cc2F)c(=O)c(C(=O)O)cn3C2CC2)CC1)c1ccc(Cl)s1` [Compound 7f, 7-(4-(2-(2-(1-(5-Chlorothiophen-2-yl)ethylidene)hydrazinyl)-2-oxoethyl)piperazin-1-yl)-1-cyclopropyl-6-fluoro-4-oxo-1,4-dihydro-quinoline-3-carboxylic acid] were 286 to 288 °C, 136 ± 6.94 µM and 124 ± 6.7 µM.
Taken in the same sequence, the figures for `O=C(CN1CCN(c2cc3c(cc2F)c(=O)c(C(=O)O)cn3C2CC2)CC1)NN=C1C(=O)Nc2cccc(Br)c21` [Compound 8b, 7-(4-(2-(2-(4-Bromo-2-oxoindolin-3-ylidene)hydrazinyl)-2-oxoethyl)piperazin-1-yl)-1-cyclopropyl-6-fluoro-4-oxo-1,4-dihydro-quinoline-3-carboxylic acid] were 263 to 265 °C, 41.1 ± 2.09 µM and 336 ± 18.1 µM.
Taken in the same sequence, the figures for `Cc1cccc(Cl)c1NC(=O)NNC(=O)CN1CCN(c2cc3c(cc2F)c(=O)c(C(=O)O)cn3C2CC2)CC1` [Compound 9b, 7-(4-(2-(2-((2-Chloro-6-methylphenyl)carbamoyl)hydrazinyl)-2-oxoethyl)piperazin-1-yl)-1-cyclopropyl-6-fluoro-4-oxo-1,4-dihydro-quinoline-3-carboxylic acid] were 285 to 287 °C, 19.3 ± 0.98 µM and 28.6 ± 1.54 µM.
On to `COc1ccc(NC(=S)NNC(=O)CN2CCN(c3cc4c(cc3F)c(=O)c(C(=O)O)cn4C3CC3)CC2)cc1` [Compound 9c, 1-Cyclopropyl-6-fluoro-7-(4-(2-(2-((4-methoxyphenyl)carbamo-thioyl)hydrazinyl)-2-oxoethyl)piperazin-1-yl)-4-oxo-1,4-dihydroquinoline-3-carboxylic acid], for which the melting point was 238 to 240 °C. Further, the IC50 in data set [1] is 4.85 ± 0.27 µM. The half-maximal inhibitory concentration (IC50) in data set [2] was 134 ± 7.23 µM.
`O=C(CN1CCN(c2cc3c(cc2F)c(=O)c(C(=O)O)cn3C2CC2)CC1)NNCC(=O)c1ccccc1` [Compound 10a, 1-Cyclopropyl-6-fluoro-4-oxo-7-(4-(2-oxo-2-(2-(2-oxo-2-phenyl-ethyl)hydrazinyl)ethyl)piperazin-1-yl)-1,4-dihydroquinoline-3-carboxylic acid] showed a melting point of 183 to 185 °C. The IC50 in data set [1] stood at 74.3 ± 3.78 µM. For the same compound, in data set [2], the IC50 turned out to be 45.4 ± 2.45 µM.
As to `O=C(CN1CCN(c2cc3c(cc2F)c(=O)c(C(=O)O)cn3C2CC2)CC1)NNCC(=O)c1cccc(Br)c1` [Compound 10b, 7-(4-(2-(2-(2-(3-Bromophenyl)-2-oxoethyl)hydrazinyl)-2-oxo-ethyl)piperazin-1-yl)-1-cyclopropyl-6-fluoro-4-oxo-1,4-dihydroquinoline-3-carboxylic acid], the melting point lay in the range of 210 to 215 °C. In data set [1], the IC50 amounted to 3.38 ± 0.18 µM. The IC50 in data set [2] came out at 17.2 ± 0.93 µM.
Taken in the same sequence, the figures for `O=C(CN1CCN(c2cc3c(cc2F)c(=O)c(C(=O)O)cn3C2CC2)CC1)NN1C(=O)CCC1=O` [Compound 11, 1-cyclopropyl-7-(4-(2-((2,5-dioxopyrrolidin-1-yl)amino)-2-oxoethyl)piperazin-1-yl)-6-fluoro-4-oxo-1,4-dihydroquinoline-3-carboxylic acid] were 184 to 186 °C, 82.2 ± 4.18 µM and 68.5 ± 3.69 µM.
For `O=C(CN1CCN(c2cc3c(cc2F)c(=O)c(C(=O)O)cn3C2CC2)CC1)NN1C(=O)c2ccccc2C1=O` [Compound 12, 1-cyclopropyl-7-(4-(2-((1,3-dioxoisoindolin-2-yl)amino)-2-oxoethyl)piperazin-1-yl)-6-fluoro-4-oxo-1,4-dihydroquinoline-3-carboxylic acid] the same measures were 190 to 192 °C, 126 ± 6.39 µM and 47 ± 1.09 µM.
Taken in the same sequence, the figures for `NC(=S)NNC(=O)CN1CCN(c2cc3c(cc2F)c(=O)c(C(=O)O)cn3C2CC2)CC1` [Compound 13, 7-(4-(2-(2-carbamothioylhydrazinyl)-2-oxoethyl)piperazin-1-yl)-1-cyclopropyl-6-fluoro-4-oxo-1,4-dihydroquinoline-3-carboxylic acid] were 188 to 200 °C, 30.5 ± 1.56 µM and 34.5 ± 1.86 µM.
In the case of `O=C(CN1CCN(c2cc3c(cc2F)c(=O)c(C(=O)O)cn3C2CC2)CC1)NN=C1NC(=O)CS1` [Compound 14, 1-cyclopropyl-6-fluoro-4-oxo-7-(4-(2-oxo-2-(2-(4-oxothiazolidin-2-ylidene)hydrazinyl)ethyl)piperazin-1-yl)-1,4-dihydroquinoline-3-carboxylic acid], the melting point was in the range of 240 to 242 °C. Besides, the concentration for half-maximal inhibition (IC50) in data set [1] amounted to 6.49 ± 0.24 µM. Also, in data set [2], the IC50 was 19.5 ± 0.58 µM.
Consider `O=C(CN1CCN(c2cc3c(cc2F)c(=O)c(C(=O)O)cn3C2CC2)CC1)NN=c1[nH]c(-c2ccccc2)cs1` [Compound 15, 1-cyclopropyl-6-fluoro-4-oxo-7-(4-(2-oxo-2-(2-(4-phenylthiazol-2(3H)-ylidene)hydrazinyl)ethyl)piperazin-1-yl)-1,4-dihydroquinoline-3-carboxylic acid], for which the melting point is 256 to 258 °C. Besides, the IC50 in data set [1] was found to be 7.54 ± 0.39 µM. Also, the IC50 in data set [2] came out at 15.9 ± 0.87 µM.
